{"source": "patent US20210007985A1", "about": "“LIPOSOMAL ANTI-INFECTIVE FORMULATIONS TO INHIBIT NON-TUBERCULOUS MYCOBACTERIA (NTM) MICROAGGREGATE FORMATION AND ESTABLISHMENT OF NTM BIOFILM” (ARADIGM CORPORATION, priority 2017, published 2021)", "key": {"[1]": {"tested_on": "M. avium MAC 104", "experiment": "Antimicrobial susceptibility (MIC, microdilution) of MAC 104 before and after treatment", "assay_type": "cell-based", "conditions": "Mycobacterium avium, MAC104, read-out: MIC of M. avium to ciprofloxacin, before and after treatment"}, "[2]": {"tested_on": "M. avium microaggregates", "experiment": "Electron micrographs of M. avium microaggregates on epithelial cell monolayer (FIG. 1)", "assay_type": "cell-based", "conditions": "300 μg/mL; treatment added at t=0 h; growth over 24 h", "excerpt": "FIG. 1 consists of FIGS. 1A, 1B, 1C, 1D and 1E."}, "[3]": {"tested_on": "M. avium (MAC Strain 104)", "experiment": "M. avium mouse lung infection model over 6 weeks", "assay_type": "in vivo, mice", "conditions": "1 mg/kg; 3 and 6 weeks"}, "[4]": {"tested_on": "M. avium 109", "experiment": "Activity against M. avium 109 in human macrophage (THP-1) model", "assay_type": "cell-based", "conditions": "M. avium 109 in THP-1 macrophages; 20 μg/mL for 4 days"}, "[5]": {"tested_on": "M. avium 101", "experiment": "Activity against M. avium 101 in human macrophage (THP-1) model", "assay_type": "cell-based"}, "[6]": {"tested_on": "M. avium", "conditions": "Inderlied et al, 1989; cited from earlier work"}, "[7]": {"tested_on": "M. avium biofilm", "conditions": "incubation of M. avium with antibiotic; McNabe et al. 2012; cited from earlier work"}}}
{"compound": "O=C(O)c1cn(C2CC2)c2cc(N3CCNCC3)c(F)cc2c1=O", "note": "[Ciprofloxacin]", "values": [{"measurement": "MIC", "setting": "[1]", "value": 8, "unit": "µg/mL"}, {"measurement": "microaggregate formation in electron micrographs", "setting": "[2]", "value": "much less microaggregate formation than control"}, {"measurement": "statistical effect on lung CFU", "setting": "[3]", "value": "did not have a statistically significant effect"}, {"measurement": "CFU Day 4", "setting": "[4]", "value": "1.1 ± 0.4 × 10^4 CFU"}, {"measurement": "statistical effect on CFU in macrophages", "setting": "[5]; M. avium 101 and 109, 20 μg/ml, Day 4 vs Day 0", "value": "did not have a statistically significant effect"}, {"measurement": "CFU Day 0", "setting": "[5]; M. avium 101 in THP-1 macrophages, initial infecting load before treatment at 20 μg/mL", "value": "7 ± 0.2 × 10^4 CFU"}, {"measurement": "minimum inhibitory concentration (MIC)", "setting": "[6]", "value": 5, "unit": "µg/mL"}]}
{"compound": "CC1(C)S[C@@H]2[C@H](NC(=O)[C@H](N)c3ccccc3)C(=O)N2[C@H]1C(=O)O", "note": "[ampicillin]", "values": [{"measurement": "effect on M. avium biofilm formation", "setting": "[7]", "value": "no effect on biofilm"}]}
{"compound": "[H]/N=C(/N)N[C@H]1[C@H](O)[C@@H](O)[C@H](O[C@@H]2O[C@@H](C)[C@](O)(C=O)[C@H]2O[C@@H]2O[C@@H](CO)[C@H](O)[C@@H](O)[C@@H]2NC)[C@@H](N/C(N)=N\\[H])[C@@H]1O", "note": "[streptomycin]", "values": [{"measurement": "effect on M. avium biofilm formation", "setting": "[7]", "value": "an increase, not decrease, in the biofilm formation"}]}
{"compound": "TMP/SMX", "values": [{"measurement": "effect on M. avium biofilm formation", "setting": "[7]", "value": "no effect on biofilm"}]}
